Measured values published in ChEMBL document CHEMBL1142784, “Discovery and in vitro evaluation of potent kinase inhibitors: Pyrido[1',2':1,5]pyrazolo[3,4-d]pyrimidines” (Bioorg Med Chem Lett, 2005).

How the values were obtained:
[1] = biological target: Vascular endothelial growth factor receptor (Homo sapiens, UniProt P17948+P35916+P35968); test: Inhibitory concentration against VEGFR(10 nM) by using homogeneous time-resolved fluorescence detection in pH 7.5
[2] = biological target: Glycogen synthase kinase-3 (Homo sapiens, UniProt P49840+P49841); test: Inhibitory concentration against GSK3-beta by using [gamma-33P]-ATP as radioligand expressed in Escherichia coli in pH 7.2 for 19 min at room temperature
[3] = biological target: Epidermal growth factor receptor (Homo sapiens, UniProt P00533); test: Inhibitory concentration against EGFR by using [gamma-33P]-ATP as radioligand in pH 7.5
[4] = biological target: Receptor tyrosine-protein kinase erbB-2 (Homo sapiens, UniProt P04626); test: Inhibitory concentration against ErbB-2 protein tyrosine kinase by using [gamma-33P]-ATP as radioligand in pH 7.5
Sequence of Receptor tyrosine-protein kinase erbB-2 (P04626 whole entry): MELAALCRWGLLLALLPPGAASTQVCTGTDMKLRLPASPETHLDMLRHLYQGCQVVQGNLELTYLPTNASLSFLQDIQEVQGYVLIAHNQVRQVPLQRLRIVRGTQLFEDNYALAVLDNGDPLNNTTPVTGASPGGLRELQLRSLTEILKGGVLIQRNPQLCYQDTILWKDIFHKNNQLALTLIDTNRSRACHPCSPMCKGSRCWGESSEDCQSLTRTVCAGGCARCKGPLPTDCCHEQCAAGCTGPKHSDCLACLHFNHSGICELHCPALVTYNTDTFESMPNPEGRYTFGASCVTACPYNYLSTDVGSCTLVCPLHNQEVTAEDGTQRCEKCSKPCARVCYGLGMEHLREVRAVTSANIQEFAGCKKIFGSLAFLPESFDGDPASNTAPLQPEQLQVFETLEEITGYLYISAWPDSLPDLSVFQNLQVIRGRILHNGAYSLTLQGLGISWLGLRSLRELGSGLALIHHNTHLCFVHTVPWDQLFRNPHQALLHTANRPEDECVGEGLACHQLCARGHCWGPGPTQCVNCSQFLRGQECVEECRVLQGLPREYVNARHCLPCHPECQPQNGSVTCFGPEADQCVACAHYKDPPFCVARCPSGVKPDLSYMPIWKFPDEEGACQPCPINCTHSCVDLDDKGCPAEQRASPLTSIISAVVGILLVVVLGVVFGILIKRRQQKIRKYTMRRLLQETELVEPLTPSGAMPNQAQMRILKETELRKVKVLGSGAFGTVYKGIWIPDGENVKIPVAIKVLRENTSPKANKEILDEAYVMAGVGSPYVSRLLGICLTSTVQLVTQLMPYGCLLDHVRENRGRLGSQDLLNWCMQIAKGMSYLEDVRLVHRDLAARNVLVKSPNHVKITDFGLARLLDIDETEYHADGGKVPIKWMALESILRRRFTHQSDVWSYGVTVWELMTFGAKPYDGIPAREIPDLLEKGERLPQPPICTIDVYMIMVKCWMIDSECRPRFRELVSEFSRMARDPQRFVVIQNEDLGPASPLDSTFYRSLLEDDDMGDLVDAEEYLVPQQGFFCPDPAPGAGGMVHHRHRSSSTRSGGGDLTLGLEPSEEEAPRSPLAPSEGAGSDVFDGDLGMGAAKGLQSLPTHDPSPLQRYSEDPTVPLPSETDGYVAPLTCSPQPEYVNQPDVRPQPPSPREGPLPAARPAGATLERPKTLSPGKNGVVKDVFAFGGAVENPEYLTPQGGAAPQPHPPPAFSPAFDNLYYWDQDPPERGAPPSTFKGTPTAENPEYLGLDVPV

Sequence of Epidermal growth factor receptor (P00533 whole entry): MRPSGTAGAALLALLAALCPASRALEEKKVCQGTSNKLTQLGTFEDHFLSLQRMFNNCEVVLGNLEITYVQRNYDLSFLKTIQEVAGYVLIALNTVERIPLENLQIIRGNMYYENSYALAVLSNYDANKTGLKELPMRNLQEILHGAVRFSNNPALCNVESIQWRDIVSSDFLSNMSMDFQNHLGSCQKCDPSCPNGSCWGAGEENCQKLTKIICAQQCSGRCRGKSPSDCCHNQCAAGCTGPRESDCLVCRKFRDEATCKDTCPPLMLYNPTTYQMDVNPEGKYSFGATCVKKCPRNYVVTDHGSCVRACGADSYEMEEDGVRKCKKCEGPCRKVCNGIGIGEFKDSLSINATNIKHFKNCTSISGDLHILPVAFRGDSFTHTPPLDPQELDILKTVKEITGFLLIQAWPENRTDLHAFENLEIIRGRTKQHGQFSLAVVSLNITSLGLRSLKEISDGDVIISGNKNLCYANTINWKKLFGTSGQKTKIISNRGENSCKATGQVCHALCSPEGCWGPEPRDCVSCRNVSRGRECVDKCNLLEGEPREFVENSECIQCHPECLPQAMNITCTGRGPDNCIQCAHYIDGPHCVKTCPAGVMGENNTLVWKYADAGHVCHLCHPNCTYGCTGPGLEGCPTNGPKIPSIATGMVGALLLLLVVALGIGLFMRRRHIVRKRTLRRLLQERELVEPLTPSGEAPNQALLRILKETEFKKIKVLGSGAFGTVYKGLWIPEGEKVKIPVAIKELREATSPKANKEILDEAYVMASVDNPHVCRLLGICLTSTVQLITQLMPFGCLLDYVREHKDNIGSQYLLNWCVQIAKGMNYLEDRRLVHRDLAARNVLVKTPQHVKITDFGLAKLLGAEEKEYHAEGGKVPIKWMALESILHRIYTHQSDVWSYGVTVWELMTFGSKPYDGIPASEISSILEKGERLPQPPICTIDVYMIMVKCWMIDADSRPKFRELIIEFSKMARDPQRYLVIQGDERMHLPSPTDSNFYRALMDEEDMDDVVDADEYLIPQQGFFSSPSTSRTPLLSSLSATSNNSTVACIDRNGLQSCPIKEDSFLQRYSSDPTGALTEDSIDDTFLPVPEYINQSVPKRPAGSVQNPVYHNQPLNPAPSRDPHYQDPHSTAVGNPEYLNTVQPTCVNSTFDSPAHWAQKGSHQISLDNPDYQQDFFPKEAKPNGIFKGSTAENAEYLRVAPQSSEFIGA

| SMILES | IC50 [1] | IC50 [2] | IC50 [3] | IC50 [4] |
| --- | --- | --- | --- | --- |
| O=C(Nc1ccc(C(F)(F)F)cc1)Nc1ncnc2nn3ccccc3c12 | 3.98 µM | 1.58 µM | – | – |
| O=C(Nc1cccc([N+](=O)[O-])c1)Nc1ncnc2nn3ccccc3c12 | > 10 µM | 0.316 µM | – | – |
| Clc1cc(Nc2ncnc3nn4ccccc4c23)ccc1OCc1ccccc1 | – | – | 0.05 µM | 200 nM |
| O=C(Nc1ccc(Br)cc1)Nc1ncnc2nn3ccccc3c12 | 3.98 µM | 1 µM | – | – |
| c1ccc(Cc2nc3ccc(Nc4ncnc5nn6ccccc6c45)cc3[nH]2)cc1 | – | – | 5.01 µM | 1580 nM |
| Nc1ncnc2nn3ccccc3c12 | – | – | > 10 µM | > 10000 nM |
| O=C(Nc1ccc(F)cc1)Nc1ncnc2nn3ccccc3c12 | 0.631 µM | > 10 µM | – | – |
| O=C(Nc1cccc(C(F)(F)F)c1)Nc1ncnc2nn3ccccc3c12 | 0.251 µM | 0.158 µM | – | – |
| N#Cc1cccc(NC(=O)Nc2ncnc3nn4ccccc4c23)c1 | 0.2 µM | 0.126 µM | – | – |
